Assay results from the NIST ThermoML archive (doi:10.1021/acs.jced.8b00403).

Assay: wn = mass fraction of the nth substance listed
Conditions: 101.33 kPa, Liquid; for viscosity: Concentric cylinders viscometry; for mass density: Vibrating tube method

OCCCO [propan-1,3-diol] + O
Conditions	mass density [kg/m3]	viscosity [mPa·s]
253.15 K, w1 = 0.4453	1053.7	40.11
253.15 K, w1 = 0.501	1058	49.09
253.15 K, w1 = 0.6123	1068.2	85.87
253.15 K, w1 = 0.7236	1074.9	158.67
253.15 K, w1 = 0.8349	1078.5	267.81
253.15 K, w1 = 0.9277	1079.6	418.56
253.15 K, w1 = 1	1078.2	574.39
258.15 K, w1 = 0.4453	1051.8	29.02
258.15 K, w1 = 0.501	1055.9	35.24
258.15 K, w1 = 0.6123	1065.8	63.15
258.15 K, w1 = 0.7236	1072.2	110.64
258.15 K, w1 = 0.8349	1075.5	184.18
258.15 K, w1 = 0.9277	1076.5	293.3
258.15 K, w1 = 1	1075.4	409.88
263.15 K, w1 = 0.334	1035.2	12.02
263.15 K, w1 = 0.4453	1047.7	19.91
263.15 K, w1 = 0.501	1052.5	24.97
263.15 K, w1 = 0.6123	1062.1	44.2
263.15 K, w1 = 0.7236	1068.4	76.18
263.15 K, w1 = 0.8349	1072.2	132.29
263.15 K, w1 = 0.9277	1073.2	206.53
263.15 K, w1 = 1	1072.3	289.5
268.15 K, w1 = 0.2226	1022.1	5.908
268.15 K, w1 = 0.334	1033.9	9.252
268.15 K, w1 = 0.4453	1045.7	15.12
268.15 K, w1 = 0.501	1050.3	18.81
268.15 K, w1 = 0.6123	1059.5	32.82
268.15 K, w1 = 0.7236	1065.6	55.72
268.15 K, w1 = 0.8349	1069.3	95.75
268.15 K, w1 = 0.9277	1070.1	149.24
268.15 K, w1 = 1	1069	207.88
273.15 K, w1 = 0.1113	1009.7	2.894
273.15 K, w1 = 0.2226	1021.3	4.695
273.15 K, w1 = 0.334	1032.5	7.257
273.15 K, w1 = 0.4453	1043.7	11.74
273.15 K, w1 = 0.501	1048.1	14.52
273.15 K, w1 = 0.6123	1056.9	24.88
273.15 K, w1 = 0.7236	1062.7	41.58
273.15 K, w1 = 0.8349	1066.3	70.71
273.15 K, w1 = 0.9277	1067.1	109.69
273.15 K, w1 = 1	1065.9	152.75
283.15 K, w1 = 0.1113	1008.8	2.055
283.15 K, w1 = 0.2226	1019.2	3.165
283.15 K, w1 = 0.334	1029.2	4.748
283.15 K, w1 = 0.4453	1039.3	7.451
283.15 K, w1 = 0.501	1043.3	9.1
283.15 K, w1 = 0.6123	1051.4	15.1
283.15 K, w1 = 0.7236	1056.8	24.57
283.15 K, w1 = 0.8349	1060.2	40.76
283.15 K, w1 = 0.9277	1061	62.32
283.15 K, w1 = 1	1059.8	86.48
293.15 K, w1 = 0.1113	1006.7	1.529
293.15 K, w1 = 0.2226	1016.3	2.251
293.15 K, w1 = 0.334	1025.4	3.318
293.15 K, w1 = 0.4453	1034.5	5.035
293.15 K, w1 = 0.501	1038.3	6.074
293.15 K, w1 = 0.6123	1045.7	9.77
293.15 K, w1 = 0.7236	1050.9	15.48
293.15 K, w1 = 0.8349	1054	25
293.15 K, w1 = 0.9277	1054.7	37.6
293.15 K, w1 = 1	1053.6	52.01
303.15 K, w1 = 0.1113	1004.1	1.189
303.15 K, w1 = 0.2226	1012.9	1.689
303.15 K, w1 = 0.334	1021.1	2.421
303.15 K, w1 = 0.4453	1029.5	3.585
303.15 K, w1 = 0.501	1033	4.306
303.15 K, w1 = 0.6123	1039.9	6.724
303.15 K, w1 = 0.7236	1044.8	10.32
303.15 K, w1 = 0.8349	1047.8	16.26
303.15 K, w1 = 0.9277	1048.5	24.03
303.15 K, w1 = 1	1047.4	32.92
313.15 K, w1 = 0.1113	1000.4	0.9825
313.15 K, w1 = 0.2226	1008.3	1.332
313.15 K, w1 = 0.334	1016.3	1.857
313.15 K, w1 = 0.4453	1023.9	2.659
313.15 K, w1 = 0.501	1027.3	3.148
313.15 K, w1 = 0.6123	1033.8	4.725
313.15 K, w1 = 0.7236	1038.6	7.184
313.15 K, w1 = 0.8349	1041.5	11.05
313.15 K, w1 = 0.9277	1042.2	16.04
313.15 K, w1 = 1	1041.1	21.79
323.15 K, w1 = 0.1113	996.2	0.7887
323.15 K, w1 = 0.2226	1003.5	1.076
323.15 K, w1 = 0.334	1010.8	1.465
323.15 K, w1 = 0.4453	1018.1	2.051
323.15 K, w1 = 0.501	1021.3	2.401
323.15 K, w1 = 0.6123	1027.4	3.522
323.15 K, w1 = 0.7236	1032.1	5.219
323.15 K, w1 = 0.8349	1035	7.801
323.15 K, w1 = 0.9277	1035.8	11.15
323.15 K, w1 = 1	1034.8	15
333.15 K, w1 = 0.1113	991.1	0.6769
333.15 K, w1 = 0.2226	998.3	0.8845
333.15 K, w1 = 0.334	1005.2	1.194
333.15 K, w1 = 0.4453	1011.8	1.641
333.15 K, w1 = 0.501	1014.8	1.885
333.15 K, w1 = 0.6123	1020.9	2.698
333.15 K, w1 = 0.7236	1025.4	3.9
333.15 K, w1 = 0.8349	1028.3	5.713
333.15 K, w1 = 0.9277	1029.3	8.023
333.15 K, w1 = 1	1028.4	10.72
343.15 K, w1 = 0.1113	985.3	0.5651
343.15 K, w1 = 0.2226	992.4	0.7245
343.15 K, w1 = 0.334	999.3	0.9821
343.15 K, w1 = 0.4453	1005.3	1.301
343.15 K, w1 = 0.501	1008.4	1.512
343.15 K, w1 = 0.6123	1014.1	2.123
343.15 K, w1 = 0.7236	1018.5	3.01
343.15 K, w1 = 0.8349	1021.5	4.303
343.15 K, w1 = 0.9277	1022.6	5.933
343.15 K, w1 = 1	1021.9	7.855
353.15 K, w1 = 0.1113	978.6	0.4871
353.15 K, w1 = 0.2226	986.3	0.6668
353.15 K, w1 = 0.334	992.6	0.8548
353.15 K, w1 = 0.4453	998.5	1.09
353.15 K, w1 = 0.501	1001.2	1.21
353.15 K, w1 = 0.6123	1006.8	1.731
353.15 K, w1 = 0.7236	1011.7	2.423
353.15 K, w1 = 0.8349	1014.4	3.317
353.15 K, w1 = 0.9277	1015.8	4.515
353.15 K, w1 = 1	1015.3	5.916
